Source: patent US20040024024A1, “Aromatic sulfone hydroxamates and their use as protease inhibitors” (priority 2001, published 2004)

Tests used:
Assay in all cases: In vitro MMP inhibition, IC50 determination (fluorogenic substrate I)
Type in all cases: biochemical
Human recombinant MMP-1 = biological target: T1, Human recombinant MMP-1 (Homo sapiens, UniProt P03956)
T1 construct: made in house; host or cells: MMP-1-transfected HT-1080 cells (spent media)
T1 sequence (P03956 100-469): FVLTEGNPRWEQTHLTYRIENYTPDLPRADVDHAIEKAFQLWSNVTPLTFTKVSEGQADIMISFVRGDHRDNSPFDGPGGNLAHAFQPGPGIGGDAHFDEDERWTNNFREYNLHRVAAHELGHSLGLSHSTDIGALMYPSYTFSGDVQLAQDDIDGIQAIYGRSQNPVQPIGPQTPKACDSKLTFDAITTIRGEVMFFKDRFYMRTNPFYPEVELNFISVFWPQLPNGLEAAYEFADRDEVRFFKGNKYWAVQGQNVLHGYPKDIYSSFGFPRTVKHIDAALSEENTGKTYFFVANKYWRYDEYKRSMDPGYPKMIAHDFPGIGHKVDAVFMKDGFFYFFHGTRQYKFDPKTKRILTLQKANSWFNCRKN
Procedure, shortened: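 APMA- or trypsin-activated enzyme, purified from spent media of transfected HT-1080 cells, incubated at room temperature with 4 μM MCA-Pro-Leu-Gly-Leu-Dpa-Ala-Arg-NH2 and graded inhibitor in Tris buffer pH 7.5 (10 mM CaCl2, 0.05% Brij). Cleavage read by fluorescence (ex 328/em 415 nm); IC50 from fluorescence reduction versus inhibitor concentration.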

Human recombinant MMP-2 = biological target: T2, Human recombinant MMP-2 (Homo sapiens, UniProt P08253)
T2 construct: made in house; host or cells: MMP-2-transfected p2AHT2 cells
T2 sequence (P08253 110-660): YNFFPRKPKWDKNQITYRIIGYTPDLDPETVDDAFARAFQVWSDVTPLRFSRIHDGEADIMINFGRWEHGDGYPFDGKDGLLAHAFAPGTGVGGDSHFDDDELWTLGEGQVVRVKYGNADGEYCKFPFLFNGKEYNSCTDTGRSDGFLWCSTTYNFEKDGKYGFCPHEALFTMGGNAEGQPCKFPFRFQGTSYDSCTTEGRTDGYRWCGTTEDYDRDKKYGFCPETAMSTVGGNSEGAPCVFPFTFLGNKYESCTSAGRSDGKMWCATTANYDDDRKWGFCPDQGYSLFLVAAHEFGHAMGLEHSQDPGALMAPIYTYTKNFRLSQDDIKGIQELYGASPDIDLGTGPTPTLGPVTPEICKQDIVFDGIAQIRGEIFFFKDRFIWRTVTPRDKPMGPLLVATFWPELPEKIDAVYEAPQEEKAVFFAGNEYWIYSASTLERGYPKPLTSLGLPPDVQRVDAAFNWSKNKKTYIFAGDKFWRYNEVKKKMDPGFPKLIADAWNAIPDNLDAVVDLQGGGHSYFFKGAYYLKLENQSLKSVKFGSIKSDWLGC
Procedure, shortened: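 APMA- or trypsin-activated recombinant MMP-2 was incubated at room temperature with serial inhibitor dilutions in Tris buffer pH 7.5 (100 mM NaCl, 10 mM CaCl2, 0.05% Brij), with DMSO from 1% stocks, and 4 μM substrate I. Cleavage was read by fluorescence at 328/415 nm; IC50 was taken from the loss of fluorescence versus inhibitor concentration.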

Human recombinant MMP-9 = biological target: T3, Human recombinant MMP-9 (Homo sapiens, UniProt P14780)
T3 construct: made in house; host or cells: MMP-9-transfected HT1080 cells (spent media)
T3 sequence (P14780 107-707 limits assumed): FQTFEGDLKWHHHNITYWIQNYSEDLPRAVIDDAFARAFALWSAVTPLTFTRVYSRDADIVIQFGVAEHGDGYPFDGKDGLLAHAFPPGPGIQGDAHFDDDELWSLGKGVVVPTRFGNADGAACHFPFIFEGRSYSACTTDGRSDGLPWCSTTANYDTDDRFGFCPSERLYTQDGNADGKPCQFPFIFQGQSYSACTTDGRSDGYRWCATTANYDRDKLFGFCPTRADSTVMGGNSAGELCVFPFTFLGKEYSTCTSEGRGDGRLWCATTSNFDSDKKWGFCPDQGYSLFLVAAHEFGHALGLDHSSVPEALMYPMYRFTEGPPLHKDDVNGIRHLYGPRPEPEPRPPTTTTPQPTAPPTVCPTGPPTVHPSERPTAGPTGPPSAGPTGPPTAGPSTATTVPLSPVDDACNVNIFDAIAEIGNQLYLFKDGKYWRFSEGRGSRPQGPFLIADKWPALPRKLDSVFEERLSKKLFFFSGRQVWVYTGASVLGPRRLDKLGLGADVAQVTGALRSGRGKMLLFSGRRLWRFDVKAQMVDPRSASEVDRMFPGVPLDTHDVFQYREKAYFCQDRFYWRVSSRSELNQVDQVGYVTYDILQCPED
Procedure, shortened: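 MMP-9 proenzyme purified from transfected HT1080 cell media, activated with APMA or trypsin. Compound dilutions in pH 7.5 Tris/NaCl/CaCl2 buffer with 0.05% polyoxyethylene 23 lauryl ether, incubated at room temperature with 4 μM MCA/Dpa substrate I. IC50 from fluorescence loss (ex 328, em 415 nm) versus inhibitor concentration.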

Row | Compound | IC50 (Human recombinant MMP-1; value outside parenthesis) | IC50 (Human recombinant MMP-2; value outside parenthesis) | IC50 (Human recombinant MMP-9; value outside parenthesis) | IC50 (Human recombinant MMP-1; value outside parentheses) | IC50 (Human recombinant MMP-2; value outside parentheses) | IC50 (Human recombinant MMP-9; value outside parentheses)
1 | Cc1ccc(-c2cccc(CCOc3ccc(S(=O)(=O)C4(C(=O)NO)CCOCC4)cc3)c2)cc1 [Example 127] | > 10000 nM | 1380 nM | > 10000 nM |  |  | 
2 | O=C(NO)C1(S(=O)(=O)c2ccc(OCCCc3cccc(-c4ccc(F)cc4)c3)cc2)CCN(C2CC2)CC1 [Example 139] | > 10000 nM | 208 nM | 4510 nM |  |  | 
3 | COCCN1CCC(C(=O)NO)(S(=O)(=O)c2ccc(OCCCc3cccc(-c4ccc(F)cc4)c3)cc2)CC1 [Example 140] | > 10000 nM | 48 nM | 1690 nM |  |  | 
4 | O=C(NO)C1(S(=O)(=O)c2ccc(OCCCc3cccc(-c4cccnc4)c3)cc2)CCOCC1 [Example 150] | > 10000 nM | 136 nM | 530 nM |  |  | 
5 | COCCN1CCC(C(=O)NO)(S(=O)(=O)c2ccc(OCCCc3nc(-c4ccccc4OC(F)(F)F)no3)cc2)CC1 [Example 152] | > 10000 nM | 58.8 nM | 72.3 nM |  |  | 
6 | O=C(NO)C1(S(=O)(=O)c2ccc(OCCCc3cccc(Br)c3)cc2)CCOCC1 [Example 154] | > 10000 nM | 10.9 nM | 111 nM |  |  | 
7 | CCc1ccccc1-c1noc(CCCOc2ccc(S(=O)(=O)C3(C(=O)NO)CCN(CCOC)CC3)cc2)n1 [Example 155] | > 10000 nM | 13.8 nM | 1170 nM |  |  | 
8 | O=C(NO)C1(S(=O)(=O)c2ccc(OCCOc3cccc(-c4ccccc4)c3)cc2)CCOCC1 [Example 157] | > 10000 nM | 182 nM | 2470 nM |  |  | 
9 | O=C(NO)C1(S(=O)(=O)c2ccc(OCCCc3cccc(-c4cccc(F)c4)c3)cc2)CCOCC1 [Example 161] | > 10000 nM | 1000 nM | 2630 nM |  |  | 
10 | O=C(NO)C1(S(=O)(=O)c2ccc(OCCCc3cccc(-c4ccccc4F)c3)cc2)CCOCC1 [Example 163] | > 10000 nM | 1370 nM | 2880 nM |  |  | 
11 | COCCN1CCC(C(=O)NO)(S(=O)(=O)c2ccc(OCCCc3nc(-c4ccc(CC(C)C)cc4)no3)cc2)CC1 [Example 175] | > 10000 nM | 438 nM | 7300 nM |  |  | 
12 | COCCN1CCC(C(=O)NO)(S(=O)(=O)c2ccc(OCCCc3nnc(-c4ccccc4C(F)(F)F)o3)cc2)CC1 [Example 178] | > 10000 nM | 28.4 nM | 1170 nM |  |  | 
13 | O=C(CCCOc1ccc(S(=O)(=O)C2(C(=O)NO)CCOCC2)cc1)Nc1cccc(OC(F)(F)F)c1 [Example 181] | > 10000 nM | 13.9 nM | 26.4 nM |  |  | 
14 | CC(C)c1cccc(NC(=O)CCCOc2ccc(S(=O)(=O)C3(C(=O)NO)CCOCC3)cc2)c1 [Example 182] | > 10000 nM | 33.1 nM | 62.1 nM |  |  | 
15 | COCCN1CCC(C(=O)NO)(S(=O)(=O)c2ccc(OCCCc3nc(-c4ccc(OC(F)(F)F)cc4)no3)cc2)CC1 [Example 190] | > 10000 nM | 166 nM | 1740 nM |  |  | 
16 | O=C(NO)C1(S(=O)(=O)c2ccc(OCCCc3ccnc(-c4ccccc4)c3)cc2)CCOCC1 [Example 197] | > 10000 nM | 13.2 nM | 432 nM |  |  | 
17 | O=C(CCCc1ccc(S(=O)(=O)C2(C(=O)NO)CCOCC2)cc1)c1cccc(-c2ccccc2)c1 [Example 219] | > 10000 nM | 60.8 nM | 77.7 nM |  |  | 
18 | O=C(CCCOc1ccc(S(=O)(=O)C2(C(=O)NO)CCOCC2)cc1)Nc1ccc(OC(F)(F)F)cc1 [Example 228] | 6870 nM | 11.4 nM | 180 nM |  |  | 
19 | Cc1cc(OC(F)(F)F)ccc1NC(=O)CCCOc1ccc(S(=O)(=O)C2(C(=O)NO)CCOCC2)cc1 [Example 229] | 5030 nM | 12.2 nM | 294 nM |  |  | 

Row | Compound | IC50 (Human recombinant MMP-1; value outside parenthesis) | IC50 (Human recombinant MMP-2; value outside parenthesis) | IC50 (Human recombinant MMP-9; value outside parenthesis) | IC50 (Human recombinant MMP-1; value outside parentheses) | IC50 (Human recombinant MMP-2; value outside parentheses) | IC50 (Human recombinant MMP-9; value outside parentheses)
20 | COc1ccc(/C(C#N)=C/CCCOc2ccc(S(=O)(=O)C3(C(=O)NO)CCN(C4CC4)CC3)cc2)cc1 [Example 233] | > 10000 nM | 25.5 nM | 832 nM |  |  | 
21 | CN(C(=O)CCCOc1ccc(S(=O)(=O)C2(C(=O)NO)CCOCC2)cc1)c1ccc(OC(F)(F)F)cc1 [Example 249] | > 10000 nM | 226 nM | 3630 nM |  |  | 
22 | O=C(CCCOc1ccc(S(=O)(=O)C2(C(=O)NO)CCOCC2)cc1)Nc1ccc(OC(F)(F)F)cc1 [Example 250] | 4410 nM | 2.5 nM | 22.5 nM |  |  | 
23 | Cc1cc(NC(=O)CCCOc2ccc(S(=O)(=O)C3(C(=O)NO)CCOCC3)cc2)ccc1OC(C)C [Example 290] | > 10000 nM | 590 nM | > 10000 nM |  |  | 
24 | O=C(NO)C1(S(=O)(=O)c2ccc(OCCCc3cncc(-c4ccc(F)cc4)c3)cc2)CCOCC1 [Example 523] |  |  |  | 8070 nM | 162 nM | 1650 nM
25 | O=C(NO)C1(S(=O)(=O)c2ccc(OCCCc3cncc(-c4ccccc4)c3)cc2)CCOCC1 [Example 524] |  |  |  | > 10000 nM | 38.3 nM | 1840 nM
26 | O=C(NO)C1(S(=O)(=O)c2ccc(OCCCc3cc(-c4ccc(F)cc4F)cs3)cc2)CCOCC1 [Example 587] |  |  |  | > 10000 nM | 81.7 nM | 1370 nM
27 | CCN1CCC(C(=O)NO)(S(=O)(=O)c2ccc(OCCCSc3nc4ccccc4s3)cc2)CC1 [Example 591] |  |  |  | > 10000 nM | 3.5 nM | 12 nM
28 | O=C(NO)C1(S(=O)(=O)c2ccc(OCCCc3cccc(-c4cccs4)c3)cc2)CCOCC1 [Example 595] |  |  |  | > 10000 nM | 482 nM | 1730 nM
29 | O=C(Cc1csc2ccccc12)NCCOc1ccc(S(=O)(=O)C2(C(=O)NO)CCOCC2)cc1 [Example 596] |  |  |  | > 10000 nM | 10.3 nM | 194 nM
30 | O=C(NCCOc1ccc(S(=O)(=O)C2(C(=O)NO)CCOCC2)cc1)c1cc2ccccc2[nH]1 [Example 599] |  |  |  | > 10000 nM | < 0.1 nM | 11.6 nM
31 | O=C(NO)C1(S(=O)(=O)c2ccc(OCCCc3cc(-c4ccc(OC(F)(F)F)cc4)cs3)cc2)CCOCC1 [Example 608] |  |  |  | > 10000 nM | 342 nM | 1790 nM
32 | N#Cc1ccc(-c2cccc(CCCOc3ccc(S(=O)(=O)C4(C(=O)NO)CCOCC4)cc3)c2)cc1 [Example 624] |  |  |  | > 10000 nM | 214 nM | 1030 nM
33 | O=C(NO)C1(S(=O)(=O)c2ccc(OCCCc3cccc(-c4ccc([N+](=O)[O-])cc4)c3)cc2)CCOCC1 [Example 626] |  |  |  | > 10000 nM | 143 nM | 885 nM
34 | O=C(NO)C1(S(=O)(=O)c2ccc(OCCCc3cccc(-c4ccc5c(c4)OCO5)c3)cc2)CCOCC1 [Example 628] |  |  |  | > 10000 nM | 1700 nM | 1750 nM
35 | O=C(NO)C1(S(=O)(=O)c2ccc(OCCCc3cccc(-c4ccc(F)cc4F)c3)cc2)CCOCC1 [Example 630] |  |  |  | > 10000 nM | 1170 nM | 5990 nM
36 | O=C(NO)C1(S(=O)(=O)c2ccc(OCCCc3cccc(-c4ccsc4)c3)cc2)CCOCC1 [Example 632] |  |  |  | > 10000 nM | 91 nM | 411 nM
37 | O=C(NO)C1(S(=O)(=O)c2ccc(OCCCc3cccc(-c4ccoc4)c3)cc2)CCOCC1 [Example 637] |  |  |  | > 10000 nM | 138 nM | 830 nM
